From patent US20240199608A1 (Eli Lilly and Company, priority 2022, published 2024)

Target: T1, Human AhR (Homo sapiens, UniProt P35869)
T1 construct: expressed in transfected cells
T1 sequence (P35869 11-848): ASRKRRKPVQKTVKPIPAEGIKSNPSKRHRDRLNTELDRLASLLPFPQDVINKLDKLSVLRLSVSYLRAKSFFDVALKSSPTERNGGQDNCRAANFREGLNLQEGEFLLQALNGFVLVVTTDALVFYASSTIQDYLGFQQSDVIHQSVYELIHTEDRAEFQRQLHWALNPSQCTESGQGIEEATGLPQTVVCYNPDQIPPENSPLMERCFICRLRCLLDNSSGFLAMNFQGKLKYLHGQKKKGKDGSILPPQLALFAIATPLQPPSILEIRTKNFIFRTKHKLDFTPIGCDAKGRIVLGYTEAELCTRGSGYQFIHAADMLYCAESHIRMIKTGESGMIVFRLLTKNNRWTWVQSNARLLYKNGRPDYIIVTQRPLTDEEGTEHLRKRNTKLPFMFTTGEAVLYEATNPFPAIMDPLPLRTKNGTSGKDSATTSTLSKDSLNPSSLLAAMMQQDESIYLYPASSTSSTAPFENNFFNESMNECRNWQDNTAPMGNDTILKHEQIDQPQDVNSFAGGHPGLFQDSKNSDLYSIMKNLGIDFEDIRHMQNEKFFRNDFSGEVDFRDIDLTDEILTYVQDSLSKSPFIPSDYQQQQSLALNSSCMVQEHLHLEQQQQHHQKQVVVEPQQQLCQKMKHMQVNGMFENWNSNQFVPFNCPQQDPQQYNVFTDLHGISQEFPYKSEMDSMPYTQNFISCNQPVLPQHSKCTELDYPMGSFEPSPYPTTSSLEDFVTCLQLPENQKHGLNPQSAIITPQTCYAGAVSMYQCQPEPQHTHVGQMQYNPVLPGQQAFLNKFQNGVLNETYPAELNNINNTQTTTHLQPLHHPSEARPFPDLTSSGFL
Assay: hAHR Nuclear Translocation Assay
Assay type: cell-based
Details: AhR-EGFP nuclear translocation in Jump-In T-REx HEK293 cells, 45 minutes incubation; class symbols; read-out: Rel EC50
Description: The purpose of this assay is to measure the ability of compounds to bind to, activate, and induce the translocation of AhR into the nucleus of a cell for transcription. Stable cell lines were established using Jump-InTM T-RExTM HEK293 Retargeting Kit (Life Technologies). Human AhR cDNA was cloned into the pJTI R4 CMV-TO EGFP vector. The EGFP was cloned to the C-terminal of AHR to form AhR-EGFP chimera. The pJTI R4 CMV-TO AhR-EGFP vector was transfected using FuGENE® HD into Jump-InTM T-RExTM HEK293 cells. Transfected cells were selected using 2.5 mg/ml G418 for 10 to 14 days, then expanded, harvested, and suspended in freeze media (FBS with 8% DMSO) at 2×10^7 cells/ml, and aliquots were stored in liquid nitrogen. One day before the assay date, cells were thawed and resuspended in DMEM with 5% FBS in the presence of 1 μg/ml Doxycycline and plated into ploy-L-Lysine coated […]-384 ULTRA Microplates (Perkin Elmer) at 12,000 to 15,000 cells per well and incubated at 37° C. and 5% CO2 overnight. On the assay date, compound was serially diluted (1:2) into 384-well nunc plates with DMSO using acoustic dispensing (ECHO®). The dose response was a 20-point curve. […] The culture media was damped and 25 μl of DMEM plus 0.1% BSA was added, then 25 μL of compound in DMEM plus 0.1% BSA was added into cell plates. Cells were incubated compounds at 37° C. and 5% CO2 for 45 minutes. The final DMSO concentration was 0.2%. The media was damped after 45 minutes incubation. The cells were fixed with 40 μl of cold MeOH (-20° C.) for 20 minutes. The MeOH was damped and 50 μL of DPBS containing 1 μg/mL Hochst was added into the cell plates. The intensity of EGFP was quantitated by using Opera PHENIX® or OPERETTA® high content image system (Perkin Elmer) with 20× Water Objective and five field per well. The ratio of EGFP fluorescent intensity in nuclear over cytosol was analyzed using a 4-parameter nonlinear logistic equation to determine the potency of AhR agonists.

| EC50 [µM] | Structure (SMILES) |
| --- | --- |
| 0.001 to 0.01 | CC1CCc2c1cc(C(=O)Nc1ccns1)c1nncn21 (single isomer, unassigned) [Example 38, N-(Isothiazol-5-yl)-6-methyl-7,8-dihydro-6H-cyclopenta[e][1,2,4] triazolo[4,3-a]pyridine-4-carboxamide] |
| 0.001 to 0.01 | CC1CCc2c1cc(C(=O)Nc1ccns1)c1nncn21 (single isomer, unassigned) [Example 39, N-(Isothiazol-5-yl)-6-methyl-7,8-dihydro-6H-cyclopenta[e][1,2,4] triazolo[4,3-a]pyridine-4-carboxamide] |
| 0.001 to 0.01 | CC1CCc2c1cc(C(=O)Nc1ccc(F)cn1)c1nncn21 (single isomer, unassigned) [Example 42, N-(5-Fluoropyridin-2-yl)-6-methyl-7,8-dihydro-6H-cyclopenta[e][1,2,4] triazolo[4,3-a]pyridine-4-carboxamide] |
| 0.001 to 0.01 | CC1CCc2c1cc(C(=O)Nc1ccc(F)cn1)c1nncn21 (single isomer, unassigned) [Example 43, N-(5-Fluoropyridin-2-yl)-6-methyl-7,8-dihydro-6H-cyclopenta[e][1,2,4]triazolo[4,3-a]pyridine-4-carboxamide] |
| > 0.05 | CC1CCc2c1cc(C(=O)Nc1ccno1)c1nncn21 (single isomer, unassigned) [Example 44, N-(Isoxazol-5-yl)-6-methyl-7,8-dihydro-6H-cyclopenta[e][1,2,4] triazolo[4,3-a]pyridine-4-carboxamide] |
| 0.01 to 0.05 | CC1CCc2c1cc(C(=O)Nc1ccno1)c1nncn21 (single isomer, unassigned) [Example 45, N-(Isoxazol-5-yl)-6-methyl-7,8-dihydro-6H-cyclopenta[e][1,2,4] triazolo[4,3-a]pyridine-4-carboxamide] |
| 0.001 to 0.01 | CC1CCc2c1cc(C(=O)Nc1ncc(Cl)cn1)c1nncn21 (single isomer, unassigned) [Example 46, N-(5-Chloropyrimidin-2-yl)-6-methyl-7,8-dihydro-6H-cyclopenta[e][1,2,4] triazolo[4,3-a]pyridine-4-carboxamide] |
| 0.001 to 0.01 | CC1CCc2c1cc(C(=O)Nc1ncc(Cl)cn1)c1nncn21 (single isomer, unassigned) [Example 47, N-(5-Chloropyrimidin-2-yl)-6-methyl-7,8-dihydro-6H-cyclopenta[e][1,2,4] triazolo[4,3-a]pyridine-4-carboxamide] |
| 0.01 to 0.05 | COc1cnc(NC(=O)c2cc3c(n4cnnc24)CCC3C)nc1 (single isomer, unassigned) [Example 48, N-(5-Methoxypyrimidin-2-yl)-6-methyl-7,8-dihydro-6H-cyclopenta[e][1,2,4] triazolo[4,3-a]pyridine-4-carboxamide] |
| 0.01 to 0.05 | COc1cnc(NC(=O)c2cc3c(n4cnnc24)CCC3C)nc1 (single isomer, unassigned) [Example 49, N-(5-Methoxypyrimidin-2-yl)-6-methyl-7,8-dihydro-6H-cyclopenta[e][1,2,4] triazolo[4,3-a]pyridine-4-carboxamide] |
| > 0.05 | CC(C)OC1CCc2c1cc(C(=O)Nc1ncc(F)cn1)c1nncn21 (single isomer, unassigned) [Example 50, N-(5-Fluoropyrimidin-2-yl)-6-isopropoxy-7,8-dihydro-6H-cyclopenta[e][1,2,4] triazolo[4,3-a]pyridine-4-carboxamide] |
| > 0.05 | CC(C)OC1CCc2c1cc(C(=O)Nc1ncc(F)cn1)c1nncn21 (single isomer, unassigned) [Example 51, N-(5-Fluoropyrimidin-2-yl)-6-isopropoxy-7,8-dihydro-6H-cyclopenta[e][1,2,4] triazolo[4,3-a]pyridine-4-carboxamide] |
| > 0.05 | Cc1nnc2c(C(=O)Nc3ncc(F)cn3)cc3c(n12)CCC3C (single isomer, unassigned) [Example 52, N-(5-Fluoropyrimidin-2-yl)-1,6-dimethyl-7,8-dihydro-6H-cyclopenta[e][1,2,4] triazolo[4,3-a]pyridine-4-carboxamide] |
| > 0.05 | Cc1nnc2c(C(=O)Nc3ncc(F)cn3)cc3c(n12)CCC3C (single isomer, unassigned) [Example 53, N-(5-Fluoropyrimidin-2-yl)-1,6-dimethyl-7,8-dihydro-6H-cyclopenta[e][1,2,4] triazolo[4,3-a]pyridine-4-carboxamide] |
| > 0.05 | CC(C)c1nnc2c(C(=O)Nc3ncc(F)cn3)cc3c(n12)CCC3C (single isomer, unassigned) [Example 54, N-(5-Fluoropyrimidin-2-yl)-1-isopropyl-6-methyl-7,8-dihydro-6H-cyclopenta[e][1,2,4] triazolo[4,3-a]pyridine-4-carboxamide] |
| > 0.05 | CC(C)c1nnc2c(C(=O)Nc3ncc(F)cn3)cc3c(n12)CCC3C (single isomer, unassigned) [Example 55, N-(5-Fluoropyrimidin-2-yl)-1-isopropyl-6-methyl-7,8-dihydro-6H-cyclopenta[e][1,2,4] triazolo[4,3-a]pyridine-4-carboxamide] |
| 0.001 to 0.01 | CCC1CCc2c1cc(C(=O)Nc1ncc(F)cn1)c1nncn21 (single isomer, unassigned) [Example 56, 6-Ethyl-N-(5-fluoropyrimidin-2-yl)-7,8-dihydro-6H-cyclopenta[e][1,2,4] triazolo[4,3-a]pyridine-4-carboxamide] |
| 0.001 to 0.01 | CCC1CCc2c1cc(C(=O)Nc1ncc(F)cn1)c1nncn21 (single isomer, unassigned) [Example 57, 6-Ethyl-N-(5-fluoropyrimidin-2-yl)-7,8-dihydro-6H-cyclopenta[e][1,2,4] triazolo[4,3-a]pyridine-4-carboxamide] |
| 0.001 to 0.01 | CC(C)C1CCc2c1cc(C(=O)Nc1ncc(F)cn1)c1nncn21 (single isomer, unassigned) [Example 58, N-(5-Fluoropyrimidin-2-yl)-6-isopropyl-7,8-dihydro-6H-cyclopenta[e][1,2,4] triazolo[4,3-a]pyridine-4-carboxamide] |
| 0.01 to 0.05 | CC(C)C1CCc2c1cc(C(=O)Nc1ncc(F)cn1)c1nncn21 (single isomer, unassigned) [Example 59, N-(5-Fluoropyrimidin-2-yl)-6-isopropyl-7,8-dihydro-6H-cyclopenta[e][1,2,4] triazolo[4,3-a]pyridine-4-carboxamide] |
| 0.01 to 0.05 | CCC(C)C1CCc2c1cc(C(=O)Nc1ncc(F)cn1)c1nncn21 (single isomer, unassigned) [Example 60, 6-(sec-butyl)-N-(5-Fluoropyrimidin-2-yl)-7,8-dihydro-6H-cyclopenta[e][1,2,4] triazolo[4,3-a]pyridine-4-carboxamide] |
| 0.001 to 0.01 | CC1CCc2c1cc(C(=O)Nc1cnn(C)n1)c1nncn21 (single isomer, unassigned) [Example 61, 6-Methyl-N-(2-methyl-2H-1,2,3-triazol-4-yl)-7,8-dihydro-6H-cyclopenta[e][1,2,4] triazolo[4,3-a]pyridine-4-carboxamide] |
| 0.01 to 0.05 | CC1CCc2c1cc(C(=O)Nc1cnn(C)n1)c1nncn21 (single isomer, unassigned) [Example 62, 6-Methyl-N-(2-methyl-2H-1,2,3-triazol-4-yl)-7,8-dihydro-6H-cyclopenta[e][1,2,4] triazolo[4,3-a]pyridine-4-carboxamide] |
